Results reported in ChEMBL document CHEMBL1201862, “PubChem BioAssay data set” (2004).
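These data come from cells grown in 96-well plates and exposed to compound for 48 hours at five concentrations. GI50 = concentration required for 50% inhibition of growth.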 Activity calls are given as the source filed them. Rule as the data show it: active = GI50 up to about 1.1 µM and inactive = higher.

Legend:
Experiment in all cases: NCI-60 cell line screen, 48 h
UACC-62 = test system: UACC-62
SF-539 = test system: SF-539
CCRF-CEM = test system: CCRF-CEM
Malme-3M = test system: Malme-3M
SNB-75 = test system: SNB-75
NCI-H226 = test system: NCI-H226
SK-MEL-2 = test system: SK-MEL-2
HOP-92 = test system: HOP-92
HCC 2998 = test system: HCC 2998
M14 = test system: M14
HOP-62 = test system: HOP-62
UO-31 = test system: UO-31
NCI-H522 = test system: NCI-H522
OVCAR-8 = test system: OVCAR-8
IGROV-1 = test system: IGROV-1
ACHN = test system: ACHN
CAKI-1 = test system: CAKI-1
RXF 393 = test system: RXF 393

Measured: GI50

CC1CC(=O)c2c(ccc3c2C(=O)c2cccc(O)c2C3=O)C1 (configuration not stated)
inactive: UACC-62 8.53 µM | SF-539 14.8 µM | CCRF-CEM 1.95 µM | Malme-3M 6.93 µM | SNB-75 10.4 µM | NCI-H226 14.4 µM | SK-MEL-2 8.81 µM | HOP-92 1.79 µM | HCC 2998 10.4 µM | M14 1.97 µM | HOP-62 > 10 µM | UO-31 11.5 µM | NCI-H522 4.37 µM | OVCAR-8 2.56 µM | IGROV-1 > 10 µM

CCCC(O)c1ccc2[nH]c3c(C)cc([N+](=O)[O-])c(C)c3c2c1 (configuration not stated)
inactive: SF-539 > 100 µM | CCRF-CEM > 100 µM | Malme-3M > 100 µM | SNB-75 > 100 µM | NCI-H226 > 100 µM | ACHN > 100 µM | SK-MEL-2 > 100 µM | HCC 2998 > 100 µM | CAKI-1 > 100 µM | M14 > 100 µM | HOP-62 > 100 µM | UO-31 > 100 µM | NCI-H522 > 100 µM | OVCAR-8 > 100 µM

N#Cc1cccc(C2C(=O)c3ccc(C(=O)c4ccc5c(c4)C(=O)N(c4ccc(Oc6ccc(N7C(=O)c8ccc(C(=O)c9ccc%10c(c9)C(=O)N(c9cccc(C#N)c9)C%10=O)cc8C7=O)cc6)cc4)C5=O)cc3C2=O)c1 (configuration not stated)
inactive: UACC-62 > 100 µM | SF-539 > 100 µM | CCRF-CEM > 100 µM | Malme-3M > 100 µM | SNB-75 > 100 µM | RXF 393 > 100 µM | ACHN > 100 µM | SK-MEL-2 > 100 µM | HOP-92 > 100 µM | HCC 2998 > 100 µM | M14 > 100 µM | HOP-62 > 100 µM | UO-31 > 100 µM | NCI-H522 > 100 µM | OVCAR-8 > 100 µM | IGROV-1 > 100 µM

O=C(Nc1ccc(F)cc1)C(=O)C(C1OC(=O)c2ccccc21)[N+](=O)[O-] (configuration not stated)
inactive: UACC-62 > 100 µM | SF-539 > 100 µM | CCRF-CEM > 100 µM | Malme-3M > 100 µM | SNB-75 > 100 µM | RXF 393 > 100 µM | NCI-H226 > 100 µM | ACHN > 100 µM | SK-MEL-2 > 100 µM | HOP-92 > 100 µM | HCC 2998 > 100 µM | CAKI-1 > 100 µM | M14 > 100 µM | HOP-62 > 100 µM | UO-31 > 100 µM | OVCAR-8 > 100 µM | IGROV-1 > 100 µM

C[Si](C)(C)/C=C/CCC(C=O)(CCCl)c1ccccc1 (configuration not stated)
inactive: UACC-62 21.7 µM | SF-539 31.2 µM | CCRF-CEM 29.6 µM | Malme-3M 17.6 µM | SNB-75 35.2 µM | RXF 393 22.4 µM | ACHN 22.8 µM | SK-MEL-2 14.8 µM | HOP-92 28.1 µM | HCC 2998 29.6 µM | M14 28.3 µM | UO-31 44.2 µM | NCI-H522 13.9 µM | OVCAR-8 27.7 µM | IGROV-1 41.1 µM

CCCCNC(=S)Nn1c(-c2ccccc2)nc2ccccc2c1=O
inactive: UACC-62 > 100 µM | SF-539 > 100 µM | CCRF-CEM 38.3 µM | Malme-3M > 100 µM | SNB-75 41.7 µM | RXF 393 24 µM | NCI-H226 > 100 µM | ACHN > 100 µM | SK-MEL-2 > 100 µM | HOP-92 67.3 µM | CAKI-1 > 100 µM | M14 > 100 µM | HOP-62 > 100 µM | UO-31 76.9 µM | NCI-H522 86.3 µM | OVCAR-8 > 100 µM | IGROV-1 > 100 µM

COC(=O)C1=C(C(=O)OC)C(C(=O)OC)C(C(=O)OC)=C1C(=O)OC
inactive: UACC-62 > 100 µM | SF-539 > 100 µM | CCRF-CEM > 100 µM | Malme-3M > 100 µM | SNB-75 > 100 µM | RXF 393 > 100 µM | ACHN > 100 µM | SK-MEL-2 > 100 µM | HOP-92 > 100 µM | HCC 2998 > 100 µM | CAKI-1 > 100 µM | M14 > 100 µM | HOP-62 > 100 µM | UO-31 > 100 µM | NCI-H522 > 100 µM | OVCAR-8 > 100 µM | IGROV-1 > 100 µM

Nn1c(-c2ccccc2)nc2ccc(Br)cc2c1=O
inactive: UACC-62 45.9 µM | SF-539 53.8 µM | CCRF-CEM 20.2 µM | Malme-3M 15.1 µM | SNB-75 > 100 µM | NCI-H226 57.5 µM | ACHN 34.8 µM | SK-MEL-2 57.1 µM | HOP-92 12.8 µM | HCC 2998 62.7 µM | CAKI-1 38.5 µM | M14 54.1 µM | HOP-62 > 10 µM | UO-31 24.4 µM | NCI-H522 33.7 µM | OVCAR-8 35.4 µM | IGROV-1 44.8 µM

NC(=O)C(=O)C1CCC2=C(Sc3ccccc3N2)C1=O (configuration not stated)
inactive: UACC-62 > 100 µM | SF-539 > 100 µM | CCRF-CEM > 10 µM | Malme-3M > 100 µM | SNB-75 > 100 µM | RXF 393 > 100 µM | ACHN > 100 µM | SK-MEL-2 > 100 µM | HOP-92 27.4 µM | HCC 2998 > 100 µM | CAKI-1 > 100 µM | M14 > 100 µM | HOP-62 > 100 µM | UO-31 > 100 µM | NCI-H522 37.5 µM | OVCAR-8 > 100 µM | IGROV-1 > 100 µM

Cc1ccc(NC(=O)/C(=N\NC(N)=S)C(C#N)c2ccccc2C)cc1C (configuration not stated)
inactive: UACC-62 > 100 µM | SF-539 > 100 µM | CCRF-CEM > 100 µM | Malme-3M > 100 µM | SNB-75 66.5 µM | NCI-H226 > 100 µM | ACHN > 100 µM | SK-MEL-2 > 100 µM | HOP-92 > 100 µM | HCC 2998 > 100 µM | CAKI-1 > 100 µM | M14 > 100 µM | HOP-62 > 100 µM | UO-31 > 100 µM | NCI-H522 > 100 µM | OVCAR-8 > 100 µM | IGROV-1 > 100 µM

Cc1c(C#N)c(=O)[nH]c(=O)n1CCN1CCN(C(=O)NCCCCCCNC(=O)N2CCN(CCn3c(C)c(C#N)c(=O)[nH]c3=O)CC2)CC1
inactive: UACC-62 > 100 µM | SF-539 > 100 µM | CCRF-CEM > 100 µM | SNB-75 > 100 µM | RXF 393 > 100 µM | ACHN > 100 µM | HOP-92 > 100 µM | HCC 2998 > 100 µM | CAKI-1 > 100 µM | M14 > 100 µM | HOP-62 > 100 µM | OVCAR-8 > 100 µM | IGROV-1 > 100 µM

O=C(OCc1ccccc1)c1nc2ccccc2n1S(=O)(=O)c1ccccc1
inactive: UACC-62 > 100 µM | SF-539 > 100 µM | CCRF-CEM > 100 µM | Malme-3M 88.9 µM | SNB-75 > 100 µM | RXF 393 > 100 µM | NCI-H226 > 100 µM | ACHN > 100 µM | SK-MEL-2 > 100 µM | HOP-92 > 100 µM | HCC 2998 > 100 µM | CAKI-1 > 100 µM | M14 > 100 µM | HOP-62 > 100 µM | UO-31 > 100 µM | OVCAR-8 > 100 µM | IGROV-1 > 100 µM
